Converted amounts (≈) assume the structure as drawn.
Tested on: Neisseria gonorrhoeae, GC525 (NG-2888)
Experiment: in-vitro antibacterial activity, microbroth dilution MIC susceptibility testing
Type: cell-based
Settings: Neisseria gonorrhoeae, microbroth dilution in gonococcal broth, 20-24 hours at 35 C, lowest concentration preventing visible growth, read-out: MIC
Protocol: The in-vitro antibacterial activity of selected compounds was determined against a stain of Neisseria gonorrhoeae, GC525 (NG-2888), which is described by Rouquette-Loughlin et al, in Journal of Bacteriology, February 2003, p. 1101-1106, at p. 1103. In general, minimum inhibitory concentration (MIC) susceptibility testing followed procedures recommended by the National Committee for Clinical Laboratory Standards (NCCLS^1-2) or followed the descriptions described below:
Neisseria gonorrhoeae strains were grown on Chocolate Agar II plates (BBL—Becton Dickinson Microbiology Systems, Cockeysville, Md.) and incubated at 35° C. in a humidified 5% CO2 incubator (Form a Scientific, Marietta Ohio). For microbroth dilution MIC testing, N. gonorrhoeae were tested in gonococcal broth (GCB):
Gram stains were also utilized. Permanent Stock Culture Collection
Bacterial stock cultures are stored as frozen suspensions at −70 C. N. gonorrhoeae cultures are suspended in inactivated Horse Serum (Colorado Serum Company, Denver, Colo.) containing 7.5% glucose prior to snap freezing in a dry ice/ethanol bath.
Preparation of Standardized Test Inocula and Plate Inoculation
Frozen stock cultures were used as the initial source of organisms for performing microbroth dilution MIC testing. Stock cultures were passed on their respective growth medium at least one growth cycle (18-24 hours) prior to their use. Bacterial culture suspensions were prepared directly from Chocolate Agar II plates into 10 mL cation-adjusted Mueller-Hinton Broth (CAMHB, BBL, # BB215069). Before use, cultures were adjusted to an optical density value of 1.6-2 on a Perkin-Elmer Lambda EZ150 Spectrophotometer (Wellesley, Mass.) set at a wavelength of 600 nm. Random cultures were plated for validation of actual colony counts. The adjusted cultures were diluted 400-fold (0.25 mL inoculum+100 mL GCB) into gonococcal broth producing a starting inoculum of approximately 5×10^5 cfu/mL. These cultures were inoculated into test plates (100 uL/well) using a Biomek® FX workstation (Beckman Coulter Inc., Fullerton, Calif.). The inoculated plates were placed in stacks of no more than 4 and covered with an empty plate. Plates were incubated for 20-24 hours at 35 C in a humidified CO2 incubator.
Test Compound (“Drug”) Preparation
Drug stock solutions (2 mg/mL in DMSO) were prepared on the day of testing. Drugs were weight corrected for assay content where necessary.
Drug Dilution Tray Preparation
Microbroth dilution stock plates were prepared in two dilution series, 64-0.06 ug drug/mL and 1-0.001 ug drug/mL. For the high concentration series, 200 uL of stock solution (2 mg/mL) was added to duplicate rows of a 96-well plate. This was used as the first well in the dilution series. Serial two-fold decremental dilutions were made using a BioMek FX robot (Beckman Coulter Inc., Fullerton, Calif.) with 10 of the remaining 11 wells, each of which contained 100 uL of the appropriate solvent/diluent. Row 12 contained solvent/diluent only and served as the control. For tube one of the low concentration series, 200 uL of a 31.25 ug/mL stock was added to duplicate rows of a 96-well plate. Serial two-fold dilutions were made as described above.
Daughter plates were spotted (3.2 uL/well) from the stock plates listed above using the BioMek FX robot and were inoculated with organism (100 uL/well) as described previously.
After incubation, the degree of growth in each well was read visually with the aid of a Test Reading Mirror (Dynatech Lab 220-16, Dynex Technologies, Chantilly, Va.). 96-well test plates are read in a darkened room with a single light shining from above. The MIC is the lowest concentration of drug that prevents macroscopically visible growth under the conditions of the test. […] If MIC values in duplicate tests differ by 1 well (two-fold), the […] value is reported. If duplicate tests vary by 2 dilutions (four-fold), the middle value is reported.

| MIC [µg/mL] | SMILES |
| --- | --- |
| 4 (≈ 10.8 µM) | CCNC(=O)Nc1nc2cc(-c3ccccc3F)cc(C(=O)NCC)n2n1 [Example 72, 2-(3-Ethyl-ureido)-7-(2-fluoro-phenyl)-[1,2,4]triazolo[1,5-a]pyridine-5-carboxylic acid ethylamide] |
| 16 (≈ 43.7 µM) | CCNC(=O)Nc1nc2cc(-c3ccccc3C)cc(C(=O)NCC)n2n1 [Example 73, 2-(3-Ethyl-ureido)-7-o-tolyl-[1,2,4]triazolo[1,5-a]pyridine-5-carboxylic acid ethylamide] |
| 2 (≈ 5.27 µM) | CCNC(=O)Nc1nc2cc(-c3cccnc3)cc(C(=O)NC3CCC3)n2n1 [Example 75, 2-(3-Ethyl-ureido)-7-pyridin-3-yl-[1,2,4]triazolo[1,5-a]pyridine-5-carboxylic acid cyclobutylamide] |
| 8 (≈ 18.4 µM) | CCNC(=O)Nc1nc2cc(-c3cccnc3)cc(C(=O)N(C)Cc3cc(C)no3)n2n1 [Example 76, 2-(3-Ethyl-ureido)-7-pyridin-3-yl-[1,2,4]triazolo[1,5-a]pyridine-5-carboxylic acidmethyl-(3-methyl-isoxazol-5-yl-methyl)-amide] |
| 1 (≈ 2.54 µM) | CCNC(=O)Nc1nc2cc(-c3cccnc3)cc(C(=O)N3CCCC3C)n2n1 (centres unmarked) [Example 77, 1-Ethyl-3-[5-(2-methyl-pyrrolidine-1-carbonyl)-7-pyridin-3-yl-[1,2,4]triazolo[1,5-a]pyridin-2-yl]-urea] |
| 8 (≈ 19.8 µM) | CCNC(=O)Nc1nc2cc(-c3cccc4ncccc34)cc(C(=O)NCC)n2n1 [Example 78, 2-(3-Ethyl-ureido)-7-quinolin-5-yl-[1,2,4]triazolo[1,5-a]pyridine-5-carboxylic acid ethylamide] |
| > 64 | CCNC(=O)Nc1nc2cc(-c3ccc(OC(C)C)cc3)cc(C(=O)NCC)n2n1 [Example 80, 2-(3-Ethyl-ureido)-7-(4-isopropoxy-phenyl)-[1,2,4]triazolo[1,5-a]pyridine-5-carboxylic acid ethylamide] |
| 2 (≈ 5.3 µM) | CCNC(=O)Nc1nc2cc(-c3cccc(C#N)c3)cc(C(=O)NCC)n2n1 [Example 81, 7-(3-Cyano-phenyl)-2-(3-ethyl-ureido)-[1,2,4]triazolo[1,5-a]pyridine-5-carboxylic acid ethylamide] |
| > 64 | CCNC(=O)Nc1nc2cc(-c3ccccc3C(F)(F)F)cc(C(=O)NCC)n2n1 [Example 82, 2-(3-Ethyl-ureido)-7-(2-trifluoromethyl-phenyl)-[1,2,4]triazolo[1,5-a]pyridine-5-carboxylic acid ethylamide] |
| 16 (≈ 36 µM) | CCNC(=O)Nc1nc2cc(-c3cccnc3)cc(C(=O)N(C)C(C)c3ccncc3)n2n1 (centres unmarked) [Example 86, 2-(3-Ethyl-ureido)-7-pyridin-3-yl-[1,2,4]triazolo[1,5-a]pyridine-5-carboxylic acid methyl-(1-pyridin-4-yl-ethyl)-amide] |
| 8 (≈ 16.5 µM) | CCNC(=O)Nc1nc2cc(-c3cccnc3)cc(C(=O)NCc3cnccc3C(F)(F)F)n2n1 [Example 87, 2-(3-Ethyl-ureido)-7-pyridin-3-yl-[1,2,4]triazolo[1,5-a]pyridine-5-carboxylic acid(4-trifluoromethyl-pyridin-3-ylmethyl)-amide] |
| 8 (≈ 18 µM) | CCNC(=O)Nc1nc2cc(-c3cccnc3)cc(C(=O)N(CC)Cc3ccncc3)n2n1 [Example 88, 2-(3-Ethyl-ureido)-7-pyridin-3-yl-[1,2,4]triazolo[1,5-a]pyridine-5-carboxylic acidethyl-pyridin-4-ylmethyl-amide] |
| 8 (≈ 18 µM) | CCNC(=O)Nc1nc2cc(-c3cccnc3)cc(C(=O)N(C)Cc3ncccc3C)n2n1 [Example 89, 2-(3-Ethyl-ureido)-7-pyridin-3-yl-[1,2,4]triazolo[1,5-a]pyridine-5-carboxylic acid methyl-(3-methyl-pyridin-2-yl-methyl)-amide] |
| > 64 | CCNC(=O)Nc1nc2cc(-c3cccnc3)cc(C(=O)N(C)C(C)c3ccccn3)n2n1 (centres unmarked) [Example 90, 2-(3-Ethyl-ureido)-7-pyridin-3-yl-[1,2,4]triazolo[1,5-a]pyridine-5-carboxylic acidmethyl-(1-pyridin-2-yl-ethyl)-amide] |
